According to patent US20250186391A1, “ORAL COMPLEMENT FACTOR D INHIBITORS” (BioCryst Pharmaceuticals, Inc., priority 2019, published 2025):

Target: Factor D (Homo sapiens (Human), UniProt P00746)
Assay: Factor D esterolytic assay
Format: biochemical
Details: Z-Lys-SBzl substrate, 100 mM HEPES, 500 mM NaCl, pH 7.5, 10% DMSO; tested a minimum of three times; read-out: Measured Ki (IC50) Value for Compounds: IC50
How it was run: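 Buffer was 100 mM HEPES, 500 mM NaCl, pH 7.5 with 10% DMSO. Compound and Factor D were combined, then Z-Lys-SBzl (1.29 mM) was added either at once or following room-temperature incubation. Rates came from DTNB colour at 405 nm minus 690 nm over 600 s, with percent inhibition giving IC50 over at least three tests.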

Factor D, sequence (P00746 26-253): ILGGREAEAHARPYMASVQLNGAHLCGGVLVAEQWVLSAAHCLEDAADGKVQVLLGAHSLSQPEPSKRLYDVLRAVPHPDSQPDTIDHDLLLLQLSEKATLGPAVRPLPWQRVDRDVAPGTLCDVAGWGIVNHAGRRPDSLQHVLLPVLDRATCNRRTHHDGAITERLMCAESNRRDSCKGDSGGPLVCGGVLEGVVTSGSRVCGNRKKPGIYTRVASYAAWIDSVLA

SMILES: NCc1cccc(-c2cc(CO)cc3cc(COc4ccccc4CC(=O)O)oc23)c1 [Compound 29b, 2-(2-((7-(3-(aminomethyl)phenyl)-5-(hydroxymethyl)benzofuran-2-yl)methoxy)phenyl)acetic acid]
- IC50: < 1000 nM

SMILES: Cc1cc(-c2cc(-c3cccc(CN)c3)cc3c(COc4ccccc4CC(=O)O)coc23)cn(C)c1=O [Compound 224c, 2-(2-((5-(3-(aminomethyl)phenyl)-7-(1,5-dimethyl-6-oxo-1,6-dihydropyridin-3-yl)benzofuran-3-yl)methoxy)phenyl)acetic acid]
- IC50: < 1000 nM

SMILES: COc1ccc(CC(=O)O)c(OCc2coc3c(C(F)(F)F)cc(-c4cccc(CN)c4)cc23)c1 [Compound 270c, 2-(2-((5-(3-(aminomethyl)phenyl)-7-(trifluoromethyl)benzofuran-3-yl)methoxy)-4-methoxyphenyl)acetic acid]
- IC50: < 1000 nM

SMILES: Cc1ccc(CC(=O)O)c(OCc2c3cc(-c4cccc(CN)c4)ccc3nn2C)c1 [Compound 211c, 2-(2-((5-(3-(aminomethyl)phenyl)-2-methyl-2H-indazol-3-yl)methoxy)-4-methylphenyl)acetic acid]
- IC50: < 1000 nM

SMILES: NCc1cccc(-c2cc(CN3CCC3)c3occ(COc4ccccc4CC(=O)O)c3c2)c1 [Compound 207d, 2-(2-((5-(3-(aminomethyl)phenyl)-7-(azetidin-1-ylmethyl)benzofuran-3-yl)methoxy)phenyl)acetic acid]
- IC50: < 1000 nM

SMILES: NCc1cccc(-c2ccc3ncc(COc4ccccc4CC(=O)O)n3c2)c1 [Compound 65e, 2-(2-((6-(3-(aminomethyl)phenyl)imidazo[1,2-a]pyridin-3-yl)methoxy)phenyl)acetic acid]
- IC50: < 1000 nM

SMILES: COc1ccc(CC(=O)O)c(OCc2c(C)oc3ccc(-c4cccc([C@@H](C)N)c4)cc23)c1 [Compound 242b, (R)-2-(2-((5-(3-(1-aminoethyl)phenyl)-2-methylbenzofuran-3-yl)methoxy)-4-methoxyphenyl)acetic acid]
- IC50: < 1000 nM

SMILES: COc1ccc(CC(=O)O)c(OCc2c(C)oc3ccc(-c4cccc(CN)c4)cc23)c1 [Compound 138c, 2-(2-((5-(3-(aminomethyl)phenyl)-2-methylbenzofuran-3-yl)methoxy)-4-methoxyphenyl)acetic acid]
- IC50: < 1000 nM

SMILES: NCc1cccc(-c2ccc3c(c2)c(COc2ccccc2CC(=O)O)nn3C2CC2)c1 [Compound 260c, 2-(2-((5-(3-(aminomethyl)phenyl)-1-cyclopropyl-1H-indazol-3-yl)methoxy)phenyl)acetic acid]
- IC50: < 1000 nM

SMILES: NCc1cccc(-c2ccc3occ(COc4c(CC(=O)O)cccc4C(N)=O)c3c2)c1 [Compound 114i, 2-(2-((5-(3-(aminomethyl)phenyl)benzofuran-3-yl)methoxy)-3-carbamoylphenyl)acetic acid]
- IC50: 1000 to 10000 nM

SMILES: Cn1cc(-c2cc(-c3cccc(CN)c3)cc3c(COc4ccccc4CC(=O)O)coc23)cn1 [Compound 72h, 2-(2-((5-(3-(aminomethyl)phenyl)-7-(1-methyl-1H-pyrazol-4-yl)benzofuran-3-yl)methoxy)phenyl)acetic acid]
- IC50: < 1000 nM

SMILES: NCc1cccc(-c2ccc3c(c2)c(COc2ccccc2CC(=O)O)nn3C2CCCCC2)c1 [Compound 259c, 2-(2-((5-(3-(aminomethyl)phenyl)-1-cyclohexyl-1H-indazol-3-yl)methoxy)phenyl)acetic acid]
- IC50: < 1000 nM

SMILES: Cc1ccc(OCc2coc3ccc(-c4cccc(CN)c4)cc23)c(CC(=O)O)c1 [Compound 105d, 2-(2-((5-(3-(aminomethyl)phenyl)benzofuran-3-yl)methoxy)-5-methylphenyl)acetic acid]
- IC50: < 1000 nM

SMILES: Cn1nc2ccc(-c3cccc(CN)c3)cc2c1COc1ccccc1CC(=O)O [Compound 184e, 2-(2-((5-(3-(aminomethyl)phenyl)-2-methyl-2H-indazol-3-yl)methoxy)phenyl)acetic acid]
- IC50: < 1000 nM

SMILES: COc1ccc(CC(=O)O)c(OCc2c(C3CC3)oc3ccc(-c4cccc(CN)c4)cc23)c1 [Compound 247c, 2-(2-((5-(3-(aminomethyl)phenyl)-2-cyclopropylbenzofuran-3-yl)methoxy)-4-methoxyphenyl)acetic acid]
- IC50: < 1000 nM

SMILES: NCc1cccc(-c2cc(C(O)C(F)(F)F)c3occ(COc4ccccc4CC(=O)O)c3c2)c1 (stereo not shown) [Compound 257h, 2-(2-((5-(3-(aminomethyl)phenyl)-7-(2,2,2-trifluoro-1-hydroxyethyl)benzofuran-3-yl)methoxy)phenyl)acetic acid]
- IC50: < 1000 nM

SMILES: COc1ccc(CC(=O)O)c(OCc2c(C)oc3ccc(-c4cc(F)cc(CN)c4)cc23)c1 [Compound 239c, 2-(2-((5-(3-(aminomethyl)-5-fluorophenyl)-2-methylbenzofuran-3-yl)methoxy)-4-methoxyphenyl)acetic acid]
- IC50: < 1000 nM

SMILES: CC(C)(C)OC(=O)N1CCN(Cc2cc(-c3cccc(CN)c3)cc3c(COc4ccccc4CC(=O)O)coc23)CC1 [Compound 121f, 2-(2-((5-(3-(aminomethyl)phenyl)-7-((4-(tert-butoxycarbonyl)piperazin-1-yl)methyl)benzofuran-3-yl)methoxy)phenyl)acetic acid]
- IC50: < 1000 nM

SMILES: Cc1cc2c(o1)c(-c1cccc(CN)c1)cc1c(COc3ccccc3CC(=O)O)c(C)oc12 [Compound 272n, 2-(2-((5-(3-(aminomethyl)phenyl)-2,7-dimethylbenzo[1,2-b:3,4-b′]difuran-3-yl)methoxy)phenyl)acetic acid]
- IC50: < 1000 nM

SMILES: Cc1cccc(OCc2coc3ccc(-c4cccc(CN)c4)cc23)c1CC(=O)O [Compound 108d, 2-(2-((5-(3-(aminomethyl)phenyl)benzofuran-3-yl)methoxy)-6-methylphenyl)acetic acid]
- IC50: < 1000 nM

SMILES: CC(C)(C)OC(=O)N(Cc1cc(-c2cccc(CN)c2)cc2c(COc3ccccc3CC(=O)O)coc12)CC(F)(F)F [Compound 177g, 2-(2-((5-(3-(aminomethyl)phenyl)-7-(((tert-butoxycarbonyl)(2,2,2-trifluoroethyl)amino)methyl)benzofuran-3-yl)methoxy)phenyl)acetic acid]
- IC50: < 1000 nM

SMILES: Cc1nn(C)c(C)c1-c1cc(-c2cccc(CN)c2)cc2c(COc3ccccc3CC(=O)O)coc12 [Compound 268c, 2-(2-((5-(3-(aminomethyl)phenyl)-7-(1,3,5-trimethyl-1H-pyrazol-4-yl)benzofuran-3-yl)methoxy)phenyl)acetic acid]
- IC50: < 1000 nM

SMILES: CC(C)n1nc(COc2cccc(C(=O)O)c2)c2cc(-c3cccc(CN)c3)ccc21 [Compound 303d, 3-((5-(3-(aminomethyl)phenyl)-1-isopropyl-1H-indazol-3-yl)methoxy)benzoic acid]
- IC50: > 10000 nM

SMILES: CCc1ccc(CC(=O)O)c(OCc2c(C)oc3ccc(-c4cccc(CN)c4)cc23)c1 [Compound 202c, 2-(2-((5-(3-(aminomethyl)phenyl)-2-methylbenzofuran-3-yl)methoxy)-4-ethylphenyl)acetic acid]
- IC50: < 1000 nM

SMILES: CC(C)n1nc(COc2ccccc2CC(=O)O)c2cc(-c3ccnc(CN)c3)ccc21 [Compound 266b, 2-(2-((5-(2-(aminomethyl)pyridin-4-yl)-1-isopropyl-1H-indazol-3-yl)methoxy)phenyl)acetic acid]
- IC50: < 1000 nM

SMILES: COc1c(-c2ccc3c(c2)c(COc2ccccc2CC(=O)O)nn3C(C)C)ccnc1CN [Compound 326d, 2-(2-((5-(2-(aminomethyl)-3-methoxypyridin-4-yl)-1-isopropyl-1H-indazol-3-yl)methoxy)phenyl)acetic acid]
- IC50: 1000 to 10000 nM

SMILES: COc1cc(-c2cccc(CN)c2)cc2c(COc3cc(C)ccc3CC(=O)O)coc12 [Compound 252c, 2-(2-((5-(3-(aminomethyl)phenyl)-7-methoxybenzofuran-3-yl)methoxy)-4-methylphenyl)acetic acid]
- IC50: < 1000 nM

SMILES: Cc1ncc(-c2cc(-c3cccc(CN)c3)cc3c(COc4ccccc4CC(=O)O)coc23)cn1 [Compound 165c, 2-(2-((5-(3-(aminomethyl)phenyl)-7-(2-methylpyrimidin-5-yl)benzofuran-3-yl)methoxy)phenyl)acetic acid]
- IC50: < 1000 nM

SMILES: COc1ccc(CC(=O)O)c(OCc2c(C(F)F)oc3c(C4CC4)cc(-c4cccc(CN)c4)cc23)c1 [Compound 234d, 2-(2-((5-(3-(aminomethyl)phenyl)-7-cyclopropyl-2-(difluoromethyl)benzofuran-3-yl)methoxy)-4-methoxyphenyl)acetic acid]
- IC50: < 1000 nM

SMILES: NCc1cccc(-c2ccc3c(c2)c(COc2ccccc2CC(=O)O)nn3-c2ccccc2)c1 [Compound 144h, 2-(2-((5-(3-(aminomethyl)phenyl)-1-phenyl-1H-indazol-3-yl)methoxy)phenyl)acetic acid]
- IC50: < 1000 nM

SMILES: COc1ccc(CC(=O)O)c(OCc2coc3c(OC)cc(-c4cccc(CN)c4)cc23)c1 [Compound 251c, 2-(2-((5-(3-(aminomethyl)phenyl)-7-methoxybenzofuran-3-yl)methoxy)-4-methoxyphenyl)acetic acid]
- IC50: < 1000 nM

SMILES: NCc1cccc(-c2cc(NCC3CC3)c3occ(COc4ccccc4CC(=O)O)c3c2)c1 [Compound 85c, 2-(2-((5-(3-(aminomethyl)phenyl)-7-((cyclopropylmethyl)amino)benzofuran-3-yl)methoxy)phenyl)acetic acid]
- IC50: < 1000 nM

SMILES: CC(C)n1nc(C(=O)Nc2ccccc2C(=O)O)c2cc(-c3cccc(CN)c3)ccc21 [Compound 314e, 2-(5-(3-(aminomethyl)phenyl)-1-isopropyl-1H-indazole-3-carboxamido)benzoic acid]
- IC50: > 10000 nM

SMILES: COc1ccc(CC(=O)O)c(OCc2c(C(C)C)oc3c(NCC4CC4)cc(-c4cccc(CN)c4)cc23)c1 [Compound 295h, 2-(2-((5-(3-(aminomethyl)phenyl)-7-((cyclopropylmethyl)amino)-2-isopropylbenzofuran-3-yl)methoxy)-4-methoxyphenyl)acetic acid]
- IC50: < 1000 nM
